According to patent US20100267784A1, “NOVEL 4,5-DIHYDROISOXAZOLES WITH ESTROGENIC ACTIVITY” (priority 2007, published 2010):

Tests used:
ERα = biological target: T1, ERα (Homo sapiens, UniProt P03372); assay: ERα reporter (luciferase) transactivation assay in transfected HEK293 cells; type: cell-based; parameters: expressed in transfected cells; host or cells: HEK293; settings: sample concentration 10 μM, 24 hours, mean of at least three independent transfections
T1 sequence (P03372 1-595): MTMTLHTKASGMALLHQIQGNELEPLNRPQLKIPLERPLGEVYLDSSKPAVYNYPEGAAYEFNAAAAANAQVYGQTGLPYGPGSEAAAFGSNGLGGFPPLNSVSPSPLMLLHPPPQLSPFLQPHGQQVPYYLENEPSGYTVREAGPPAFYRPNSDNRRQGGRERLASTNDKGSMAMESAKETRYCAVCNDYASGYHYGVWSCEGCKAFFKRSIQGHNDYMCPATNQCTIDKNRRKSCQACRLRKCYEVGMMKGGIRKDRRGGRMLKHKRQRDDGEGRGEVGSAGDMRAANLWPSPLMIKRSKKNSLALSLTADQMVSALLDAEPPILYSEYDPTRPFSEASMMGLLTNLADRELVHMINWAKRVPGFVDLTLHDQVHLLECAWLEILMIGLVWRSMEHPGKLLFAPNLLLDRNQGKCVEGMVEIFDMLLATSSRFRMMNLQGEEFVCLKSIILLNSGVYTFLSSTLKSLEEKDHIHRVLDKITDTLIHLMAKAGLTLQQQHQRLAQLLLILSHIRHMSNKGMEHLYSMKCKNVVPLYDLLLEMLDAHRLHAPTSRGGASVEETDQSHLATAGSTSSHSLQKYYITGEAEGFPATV
Procedure: (§1) Determination of the Estrogen Activity of the Compounds: Cell Culture, Transfection and Reporter Assays
(§2) All other reagents were of reagent grade from Sigma or Fluka. One day before transfection, HEK293 cells were seeded in 48-well plates (70×10^3 cells per well) in phenol-free Dulbecco's modified Eagle medium supplemented with 5% delipidated fetal bovine serum (Sigma) and antibiotics. After a medium change, the cells were transfected for 4 hours with 5 ng ERα or ERβ expression vector, 75 ng reporter plasmid pERE2TATA-LUC and 20 ng control plasmid pCMVβ by the calcium phosphate method. After transfection, the cells received fresh medium containing either vehicle (0.1% v/v) or test compound (10 μM). After 24 hours, the cells were washed, lysed and luciferase and β-galactosidase activities were determined from 20 μl of lysates with the Victor^2TM reader (PerkinElmer Wallac, Turku, Finland). […] The data are means ±SEM of at least three independent transfections.

ERβ = ERβ (Homo sapiens, UniProt Q92731); assay: ERβ reporter (luciferase) transactivation assay in transfected HEK293 cells; type: cell-based; parameters: expressed in transfected cells; host or cells: HEK293; settings: for ERβ receptor activation relative to 10 nM E2 corresponding 100: sample concentration 10 μM, 24 hours, mean of at least three independent transfections; for activation at 10 µM: HEK293, 24 h, read-out: ERβ receptor activation relative to 10 nM E2 corresponding 100, sample concentration 10 μM, mean of at least three independent transfections
Procedure: as §1, §2

Sequence of ERβ (Q92731 whole entry): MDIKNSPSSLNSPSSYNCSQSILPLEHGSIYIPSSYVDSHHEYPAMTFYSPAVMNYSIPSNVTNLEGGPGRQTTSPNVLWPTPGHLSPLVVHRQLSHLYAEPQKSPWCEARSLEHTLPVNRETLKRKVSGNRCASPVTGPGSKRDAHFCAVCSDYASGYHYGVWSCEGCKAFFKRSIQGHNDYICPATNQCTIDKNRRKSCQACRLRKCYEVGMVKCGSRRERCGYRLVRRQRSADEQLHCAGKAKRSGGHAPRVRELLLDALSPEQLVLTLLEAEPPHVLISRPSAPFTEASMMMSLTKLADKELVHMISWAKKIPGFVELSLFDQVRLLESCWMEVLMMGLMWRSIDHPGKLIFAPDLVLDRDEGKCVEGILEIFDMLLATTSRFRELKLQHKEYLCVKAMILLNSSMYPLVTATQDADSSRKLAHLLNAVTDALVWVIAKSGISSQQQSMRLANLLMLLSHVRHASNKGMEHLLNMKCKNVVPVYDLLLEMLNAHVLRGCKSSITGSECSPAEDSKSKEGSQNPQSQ

SMILES	ERα receptor activation relative to 10 nM E2 corresponding 100 (ERα)	ERβ receptor activation relative to 10 nM E2 corresponding 100 (ERβ)	activation at 10 µM (ERβ)
COc1ccc(C2=NOC(Cc3ccccc3)C2)cc1 (single isomer, unassigned) [12a, 5-Benzyl-3-(4-methoxyphenyl)-4,5-dihydroisoxazole]	55.2%	17.2%	–
COc1ccc(C2=NOC(Cc3ccccc3)C2)cc1 (single isomer, unassigned) [12b, 5-Benzyl-3-(4-methoxyphenyl)-4,5-dihydroisoxazole]	9.7%	7.9%	–
COc1ccccc1CC1CC(CCc2ccccc2)=NO1 (single isomer, unassigned) [64a, 5-(2-Methoxybenzyl)-3-phenethyl-4,5-dihydroisoxazole]	18.9%	–	9.5%
COc1ccccc1CC1CC(CCc2ccccc2)=NO1 (single isomer, unassigned) [64b, 5-(2-Methoxybenzyl)-3-phenethyl-4,5-dihydroisoxazole]	0.4%	6.4%	–
COc1ccc(CC2CC(CCc3ccccc3)=NO2)cc1 (single isomer, unassigned) [65a, 5-(4-Methoxybenzyl)-3-phenethyl-4,5-dihydroisoxazole]	0.8%	10.6%	–
COc1ccc(CC2CC(CCc3ccccc3)=NO2)cc1 (single isomer, unassigned) [65b, 5-(4-Methoxybenzyl)-3-phenethyl-4,5-dihydroisoxazole]	16.1%	–	13.2%
Fc1ccc(CC2CC(CCc3ccccc3)=NO2)cc1 (single isomer, unassigned) [66a, 5-(4-fluorobenzyl)-3-phenethyl-4,5-dihydroisoxazole]	99.2%	–	11.2%
Fc1ccc(CC2CC(CCc3ccccc3)=NO2)cc1 (single isomer, unassigned) [66b, 5-(4-fluorobenzyl)-3-phenethyl-4,5-dihydroisoxazole]	28.9%	7.4%	–
c1ccc(CCC2=NOC(Cc3cccc4ccccc34)C2)cc1 (single isomer, unassigned) [67a, 5-naphthalen-1-yl-methyl-3-phenethyl-4,5-dihydroisoxazole]	34.1%	–	10.5%
c1ccc(CCC2=NOC(Cc3cccc4ccccc34)C2)cc1 (single isomer, unassigned) [67b, 5-naphthalen-1-yl-methyl-3-phenethyl-4,5-dihydroisoxazole]	17.2%	6.5%	–
c1ccc(CCC2=NOC(Cc3ccc4ccccc4c3)C2)cc1 (single isomer, unassigned) [68a, 5-naphthalen-2-yl-methyl-3-phenethyl-4,5-dihydroisoxazole]	22.3%	8.2%	–
c1ccc(CCC2=NOC(Cc3ccc4ccccc4c3)C2)cc1 (single isomer, unassigned) [68b, 5-naphthalen-2-yl-methyl-3-phenethyl-4,5-dihydroisoxazole]	13.0%	3.8%	–
CC1(c2ccccc2)CC(CCc2ccccc2)=NO1 (single isomer, unassigned) [71a, 5-Methyl-3-phenethyl-5-phenyl-4,5-dihydroisoxazole]	8.1%	−20.0%	–
CC1(c2ccccc2)CC(CCc2ccccc2)=NO1 (single isomer, unassigned) [71b, 5-Methyl-3-phenethyl-5-phenyl-4,5-dihydroisoxazole]	10.9%	−7.3%	–
COc1ccc(CCCC2=NOC(c3ccccc3)C2)cc1 (single isomer, unassigned) [72a, 3-[3-(4-Methoxy-phenyl)-propyl]-5-phenyl-4,5-dihydroisoxazole]	9.2%	−5.8%	–
COc1ccc(CCCC2=NOC(c3ccccc3)C2)cc1 (single isomer, unassigned) [72b, 3-[3-(4-Methoxy-phenyl)-propyl]-5-phenyl-4,5-dihydroisoxazole]	1.2%	−9.0%	–
Oc1ccc(C2=NOC(Cc3ccccc3)C2)cc1 (single isomer, unassigned) [80a, 5-Benzyl-3-(4-hydroxy-phenyl)-4,5-dihydro-isoxazole]	52.0%	–	28.5%
Oc1ccc(C2=NOC(Cc3ccccc3)C2)cc1 (single isomer, unassigned) [80b, 5-Benzyl-3-(4-hydroxy-phenyl)-4,5-dihydro-isoxazole]	58.6%	17.7%	–
Oc1ccc(CC2=NOC(c3cccc(O)c3)C2)cc1 (single isomer, unassigned) [83a, 3-(4-Hydroxy-benzyl)-5-(3-hydroxy-phenyl)-4,5-dihydro-isoxazole]	30.8%	–	33.2%
Oc1ccc(CC2=NOC(c3cccc(O)c3)C2)cc1 (single isomer, unassigned) [83b, 3-(4-Hydroxy-benzyl)-5-(3-hydroxy-phenyl)-4,5-dihydro-isoxazole]	3.6%	41.3%	–
Oc1ccc(CCCC2=NOC(c3cccc(O)c3)C2)cc1 (single isomer, unassigned) [89a, 3-[3-(4-Hydroxy-phenyl)-propyl]-5-(3-hydroxy-phenyl)-4,5-dihydro-isoxazole]	32.9%	–	12%
Oc1ccc(CCCC2=NOC(c3cccc(O)c3)C2)cc1 (single isomer, unassigned) [89b, 3-[3-(4-Hydroxy-phenyl)-propyl]-5-(3-hydroxy-phenyl)-4,5-dihydro-isoxazole]	27.6%	7.2%	–
Oc1ccccc1CCC1=NOC(Cc2ccccc2)C1 (single isomer, unassigned) [91a, 5-Benzyl-3-[2-(2-hydroxy-phenyl)-ethyl]-4,5-dihydro-isoxazole]	104.8%	–	19.2%
Oc1ccccc1CCC1=NOC(Cc2ccccc2)C1 (single isomer, unassigned) [91b, 5-Benzyl-3-[2-(2-hydroxy-phenyl)-ethyl]-4,5-dihydro-isoxazole]	39.7%	30.5%	–
Oc1cccc(CCC2=NOC(Cc3ccccc3)C2)c1 (single isomer, unassigned) [92a, 5-Benzyl-3-[2-(3-hydroxy-phenyl)-ethyl]-4,5-dihydro-isoxazole]	19.2%	6.7%	–
Oc1cccc(CCC2=NOC(Cc3ccccc3)C2)c1 (single isomer, unassigned) [92b, 5-Benzyl-3-[2-(3-hydroxy-phenyl)-ethyl]-4,5-dihydro-isoxazole]	15.7%	−2.5%	–
Oc1ccc(CC2CC(CCc3ccccc3)=NO2)cc1 (single isomer, unassigned) [94a, 5-(4-Hydroxy-benzyl)-3-phenethyl-4,5-dihydro-isoxazole]	34.2%	9.1%	–
Oc1ccc(CC2CC(CCc3ccccc3)=NO2)cc1 (single isomer, unassigned) [94b, 5-(4-Hydroxy-benzyl)-3-phenethyl-4,5-dihydro-isoxazole]	105.2%	42.4%	–
Oc1ccc(CC2CC(CCc3ccccc3O)=NO2)cc1 (single isomer, unassigned) [95a, 5-(4-Hydroxy-benzyl)-3-[2-(2-hydroxy-phenyl)-ethyl]-4,5-dihydro-isoxazole]	20.4%	2.4%	–
